Experimental findings from US12291494B2, “Methods of treating fibrosis” (Nogra Pharma Limited, priority 2012, dated 2025) are described below.

The subject of experiment [1] is Collagen-1. The experiment is described as follows: Liver gene expression by quantitative Real Time PCR: collagen-1. It is filed as in vivo, mice. The note with it: liver mRNA, normalized to β-actin, CCl4 group 138.12 ± 34.68. The protocol: The effect of administration of compound 34 (GED) and the specific CB2 agonist (JWH-133) was evaluated on the level of gene expression of cytokines (IL-1β, TNF-α) and genes involved in the mechanism of fibrosis by quantitative Real Time PCR.
Total RNA was isolated from livers using Rneasy kit (Macherey Nagel, Hoerdt, France) according to the manufacturer's instructions. RNA quantification was performed using spectrophotometry. After treatment at 37° C. for 30 min with 20-50 units of RNase-free DNase I (Roche Diagnostics Corporation, Indianapolis, IN, USA), oligo-dT primers (Roche Diagnostics Corporation, Indianapolis, USA) were used to synthesize single-stranded cDNA. mRNAs were quantified using SYBR green Master Mix (Applera, Courtaboeuf, France) with murine specific oligonucleotides (see Table 2) in a GeneAmp Abiprism 7000 (Applera, Courtaboeuf, France). In each assay, calibrated and no-template controls were included. Each sample was run in triplicate. SYBR green dye intensity was analyzed using the Abiprism 7000 SDS software (Applera, Courtaboeuf, France). All results were normalized to the unaffected housekeeping gene β-actin.

Experiment [2] relates to C57bl6 mice. The experiment is described as follows: DSS intestinal fibrosis study (Ex. 5/6): colon ratio weight/size. Type of experiment: in vivo. The protocol: This example describes an experiment to evaluate the effect of compound 34 on intestinal fibrosis. Chronic colitis was induced in C57bl6 mice by 3 cycles of 2.5% DSS (40,000-50,000 MW, TdB consultancy AB, Sweden) dissolved in sterile drinking water for 5 days followed by 7 days of regular drinking water.
Compound 34 was used at its optimal dosage (30 mM) and administered by oral gavage daily after the second cycle of DSS and until euthanasia. Mice receiving DSS were checked twice a week for development of colitis by monitoring body weight. Euthanasia of mice was performed one week after the third cycle of DSS (see FIG. 5). Evaluation of the size and weight of the colon was evaluated post mortem.
Intestinal fibrosis is characterized by a shortening and thickening of the colon and adherences. The measure of the ratio weight/size of the colon is an indicator of the level of inflammation and fibrosis. […] Compound 34 causes a 34% reduction in the profibrotic effect of DSS leading to a significant decrease ratio weight/size of the colon of 38.13±7.82 vs 44.98±6.31 (p<0.05) compared to DSS mice receiving the vehicle (FIG. 6A). Accordingly, it reduces the morphological signs of fibrosis such as the shortening and the thickening of the colon and it decreases the collagen deposit in the colon (FIG. 6B).

Experiment [3] concerns C57BL/6 mice. The experiment can be described thus: DSS chronic colitis (Ex. 7): assessment of colitis course. It is filed as in vivo. The protocol: Chronic colitis and fibrosis were induced in mice by oral administration of 2.5% (w/v) DSS in drinking water, for three cycles (5 day DSS, 7 days of water). Animals were monitored daily for food and fluid intake and were weighed at the beginning of the study and thereafter regularly every three days.
The mice were randomly divided into two groups: i. DSS and ii. DSS+GED. Each group consisted of 25 mice and was compared with 10 control animals, which received only water. GED (30 mg/kg/mouse) was dissolved in a solution containing 0.5% Carboxymethylcellulose sodium salt (CMC; MW: 90,000 Da; Sigma Aldrich) and 1% Tween 80 and was administrated daily by oral gavage (100 μl/mouse). GED was administered at the beginning of second cycle.
Animals were observed daily for fluid intake, weight changes, and examined for signs of colitis including weight loss, diarrhoea, rectal bleeding and prolapse as well as signs of systemic inflammation such as piloerection, lethargy, and periorbital exudates.

Experiment [4] has as its system IL-13. The experiment can be described thus: DSS chronic colitis (Ex. 7): Western blot, IL-13. Type of experiment: in vivo, mice. The note with it: percentage of optical density vs control group, normalized with GAPDH; DSS 189.5%±28.71%. The protocol:
(§1) 0.5 cm of frozen colonic samples were cut and mechanically homogenized in RIPA Buffer containing 50 mMTrisHCl pH 7.6, 150 mMNaCl, 1.5 mM MgCl2, 5 mM EDTA, 1% Triton-X and 10% Glycerol, supplemented with 100 mM Sodium Fluoride (NaF), 2 mM Sodium Orthovanadate (Na3VO4), 10 mM Sodium Pyrophosphate (NaPPi), 1 mMphenylmethanesulphone (PMSF) and a classical protease-inhibitor cocktail containing 10 μg/mL Leupeptin and Aprotinin.
(§2) 30 μg of protein for each sample were separated by PAGE and electroblotted. 100% pure Nitrocellulose membranes were incubated (according with a specific protocol for each antibody) with primary antibodies directed against TGF-β1, CTGF, α-SMA, Collagen-I and GAPDH (purchased from Abcam, Cambridge, UK; 1:1000 for 2 h at RT), and IL-13 (purchased from Antibodies online; 1:1000 for 2 h at RT) diluted in 5% non fat-milk in 0.1% TBS-t. […] Optical density of target bands was determined using a computer-assisted densitometer and the ImageJ public domain software (W. S., Rasband, ImageJ, U. S. National Institutes of Health, Bethesda, MD; http://rsb.info.nih.gov/ij/, 1997-2011). Tissue levels were expressed as units of Optical Density (OD) per quantity of total proteins, normalizing with internal control GAPDH and the results were expressed as percentage of control groups.
(In general: Immunoblotting shows a protein as a band on a membrane.)

For experiment [5], the system named is CTGF. The experiment is described as follows: DSS chronic colitis (Ex. 7): Western blot, CTGF. Type of experiment: in vivo, mice. The note with it: percentage of optical density vs control group, normalized with GAPDH; DSS 115.1%±16.88%. The protocol: as §1, §2

`COC(Cc1ccc(N)cc1)C(=O)O` (racemic) [Compound 34, (±)-2-methoxy-3-(4′-aminophenyl) propionic acid]: the Collagen-1 is 75.15 ± 5.23, p = 0.03 in experiment [1] and 42.81±14.81 in experiment [1] (listed as compound 34). Further, the “ratio weight/size of the colon” value in experiment [2] (compound 34 30 mM 200 uL oral gavage daily day 13-36, DSS vehicle 44.98±6.31, control 20.11±3.91) was 38.13±7.82. Moreover, the “reduction in the profibrotic effect of DSS (colon ratio weight/size)” value in experiment [2] (compound 34 30 mM oral gavage) worked out at 34%. For the same compound, the Body weight in experiment [3] (chronic DSS colitis, GED 30 mg/kg oral daily, mean ± SEM) was 25.132 ± 0.458 ^. In addition, in experiment [3] (chronic DSS colitis, GED 30 mg/kg oral gavage daily, DSS 2), the Mortality amounted to 0 n. mice. The “mice with systemic manifestations (piloerection, periorbital exudates and/or lethargy)” value in experiment [3] (seventh day of DSS oral administration, DSS mice 40%) came out at 30%. Besides, the “mice with moderate to severe diarrhea” value in experiment [3] (seventh day of DSS oral administration, DSS mice 70%) amounted to 50%. In addition, the “IL-13 expression level (Western blot)” value in experiment [4] is listed as 88.88%±14.01%. In addition, in experiment [5], the “CTGF expression level (Western blot)” value is 55.57%±17.53%.
